Values quoted from earlier work as cited in US20060024422A1, “Salt substitute compositions having N-neohexyl-a-aspartyl-l- phenylalanine methyl ester for modifying flavor and methods of manufacturing the same” (Cumberland Packing Corp., priority 2004, published 2006).

Details: on a weight basis

## COC(=O)[C@H](Cc1ccccc1)NC(=O)[C@H](CC(=O)O)NCCC(C)(C)C [neotame, N-[N-(3,3-dimethylbutyl)-L-α-aspartyl]-L-phenylalanine 1-methyl ester]
  Sweetness relative to sucrose: approximately 8,000 times
